Test results: patent US11324749B2, “Combination therapy for treatment of hematological diseases” (Incyte Corporation, priority 2018, dated 2022)

Assays:
[1] = target: human JAK2 (a.a. 828-1132) (Homo sapiens (Human), UniProt O60674); experiment: In vitro JAK kinase assay (HTRF), JAK2 versus JAK1; assay type: biochemical; conditions: IC50 ratio, 1 mM ATP
Protocol: (§1) The catalytic activity of JAK1, JAK2, or JAK3 was assayed by measuring the phosphorylation of a biotinylated peptide. The phosphorylated peptide was detected by homogenous time resolved fluorescence (HTRF). […] Reactions are carried out at room temperature for 1 hour and then stopped with 20 μL 45 mM EDTA, 300 nM SA-APC, 6 nM Eu-Py20 in assay buffer (Perkin Elmer, Boston, Mass.). Binding to the Europium labeled antibody takes place for 40 minutes and HTRF signal was measured on a Fusion plate reader (Perkin Elmer, Boston, Mass.).

[2] = target: human JAK1 (a.a. 837-1142) (Homo sapiens, UniProt P23458); experiment: In vitro JAK kinase assay (HTRF), JAK1; assay type: biochemical; conditions: 1 mM ATP
Protocol: as §1

Chain of human JAK2 (a.a. 828-1132) (O60674 828-1132): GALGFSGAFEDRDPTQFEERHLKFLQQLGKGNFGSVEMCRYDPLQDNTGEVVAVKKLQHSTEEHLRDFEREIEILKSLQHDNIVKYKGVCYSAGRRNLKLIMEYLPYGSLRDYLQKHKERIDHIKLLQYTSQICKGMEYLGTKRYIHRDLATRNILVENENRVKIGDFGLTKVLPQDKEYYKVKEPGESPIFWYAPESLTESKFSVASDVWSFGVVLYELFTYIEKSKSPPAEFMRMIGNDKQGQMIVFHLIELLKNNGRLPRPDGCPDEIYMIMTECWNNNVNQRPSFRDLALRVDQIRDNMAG

| SMILES | JAK2/JAK1 [1] | IC50 [2] |
| --- | --- | --- |
| N#CCC(C1CCN(c2cccc(Cl)n2)C1)n1cc(-c2ncnc3[nH]ccc23)cn1 (single isomer, unassigned) [Compound 6, 3-[1-(6-chloropyridin-2-yl)pyrrolidin-3-yl]-3-[4-(7H-pyrrolo[2,3-d]pyrimidin-4-yl)-1H-pyrazol-1-yl]propanenitrile] | >10 | < 10 nM |
| N#CCC1(n2cc(-c3ncnc4[nH]ccc34)cn2)CN(C2CCN(C(=O)Nc3ccc(F)cc3C(F)(F)F)CC2)C1 [Compound 2, 4-{3-(Cyanomethyl)-3-[4-(7H-pyrrolo[2,3-d]pyrimidin-4-yl)-1H-pyrazol-1-yl]azetidin-1-yl}-N-[4-fluoro-2-(trifluoromethyl)phenyl] piperidine-1-carboxamide] | >10 | < 10 nM |
| N#CCC1(n2cc(-c3ncnc4[nH]ccc34)cn2)CN(C2CCN(C(=O)c3ccnc(C(F)(F)F)n3)CC2)C1 [Compound 3, [3-[4-(7H-pyrrolo[2,3-d]pyrimidin-4-yl)-1H-pyrazol-1-yl]-1-(1-{[2-(trifluoromethyl)pyrimidin-4-yl]carbonyl}piperidin-4-yl)azetidin-3-yl]acetonitrile] | >10 | < 10 nM |
| C[C@@H](O)c1nc2cnc3ccsc3c2n1[C@H]1CC[C@H](CC#N)OC1 [Compound 5, ((2R,5S)-5-{2-[(1R)-1-hydroxyethyl]-1H-imidazo[4,5-d]thieno[3,2-b]pyridin-1-yl}tetrahydro-2H-pyran-2-yl)acetonitrile] | >10 | < 100 nM |
| N#CCC(C1CCN(c2nc3cccnc3o2)C1)n1cc(-c2ncnc3[nH]ccc23)cn1 (centres unmarked) [Compound 7, 3-(1-[1,3]oxazolo[5,4-b]pyridin-2-ylpyrrolidin-3-yl)-3-[4-(7H-pyrrolo[2,3-d]pyrimidin-4-yl)-1H-pyrazol-1-yl]propanenitrile] | >10 | < 10 nM |
| N#CCC(CN1CCN(C(=O)c2ccc(C#N)cc2F)CC1)n1cc(-c2ncnc3[nH]ccc23)cn1 (centres unmarked) [Compound 8, 4-[(4-{3-cyano-2-[4-(7H-pyrrolo[2,3-d]pyrimidin-4-yl)-1H-pyrazol-1-yl]propyl}piperazin-1-yl)carbonyl]-3-fluorobenzonitrile] | >10 | < 10 nM |
| N#CCC(CN1CCN(C(=O)c2ccc(C#N)cc2F)CC1)n1ccc(-c2ncnc3[nH]ccc23)c1 (centres unmarked) [Compound 9, 4-[(4-{3-cyano-2-[3-(7H-pyrrolo[2,3-d]pyrimidin-4-yl)-1H-pyrrol-1-yl]propyl}piperazin-1-yl)carbonyl]-3-fluorobenzonitrile] | >10 | < 10 nM |
| N#CC[C@]1(n2cc(-c3ncnc4[nH]ccc34)cn2)C[C@H](N2CCN(C(=O)c3ccnc(C(F)(F)F)n3)CC2)C1 [Compound 10, [trans-1-[4-(7H-pyrrolo[2,3-d]pyrimidin-4-yl)-1H-pyrazol-1-yl]-3-(4-{[2-(trifluoromethyl)pyrimidin-4-yl]carbonyl}piperazin-1-yl)cyclobutyl]acetonitrile] | >10 | < 10 nM |
| N#CC[C@]1(n2cc(-c3ncnc4[nH]ccc34)cn2)C[C@H](N2CCC(Oc3cc(CN4CC(O)C4)cc(C(F)(F)F)n3)CC2)C1 [Compound 11, {trans-3-(4-{[4-[(3-hydroxyazetidin-1-yl)methyl]-6-(trifluoromethyl)pyridin-2-yl]oxy}piperidin-1-yl)-1-[4-(7H-pyrrolo[2,3-d]pyrimidin-4-yl)-1H-pyrazol-1-yl]cyclobutyl}acetonitrile] | >10 | < 10 nM |
| N#CC[C@]1(n2cc(-c3ncnc4[nH]ccc34)cn2)C[C@H](N2CCC(Oc3cc(CN4CCC[C@H]4CO)cc(C(F)(F)F)n3)CC2)C1 [Compound 12, {trans-3-(4-{[4-{[(2S)-2-(hydroxymethyl)pyrrolidin-1-yl]methyl}-6-(trifluoromethyl)pyridin-2-yl]oxy}piperidin-1-yl)-1-[4-(7H-pyrrolo[2,3-d]pyrimidin-4-yl)-1H-pyrazol-1-yl]cyclobutyl}acetonitrile] | >10 | < 10 nM |
